Results: patent US10781185B2, “Heterocyclic compounds for the inhibition of PASK” (BioEnergenix LLC, priority 2009, dated 2020)

How the values were obtained:
[1] = target: PASK (UniProt # Q96RG2; human recombinant N-terminal GST tagged construct, residues 879-1323) (Homo sapiens (Human), UniProt Q96RG2); assay: PASK ATP Radiochemical Assay; assay type: biochemical; details: 33P-ATP radiochemical, Myelin Basic Protein substrate; read-out: IC50 Kinase Domain
Experimental: PASK ATP Radiochemical Assay
Test compounds in DMSO are then added and the mixture, followed by delivery of ^33P-ATP (specific activity 0.01 μCi/μl final) to initiate the reaction. […] The entire reaction mixture is washed through onto a P81 Phosphocellulose paper and washed three times for 10 minutes in 75 mM phosphoric acid and once in methanol prior to drying and scintillation counting.

[2] = target: PASK (Homo sapiens (Human), UniProt Q96RG2); assay: PAS Kinase FRET Assay; assay type: biochemical; details: TR-FRET, Ulight-peptide substrate; read-out: IC50 Kinase Domain
Description: PAS Kinase FRET Assay The aim of the FRET assay is to determine the inhibition potential of test compounds on targeted kinase. This assay platform provides a homogenous screening method for measuring kinase activity by quantitating the amount of phospho-substrate in solution following a kinase reaction. In the presence of kinase and ATP, the Ulight-peptide is phosphorylated and captured by an anti-phospho-substrate antibody, which brings the Eu chelate donor and Ulight acceptor dyes into close proximity. […] The contents of the plate were and incubated at RT for 1 h. The reaction was stopped by adding 5 μl of stop solution to each test well followed by mixing and incubation at RT for 10 minutes. 5 μl of detection mix (detection antibody diluted in detection buffer) was added; the contents of the plate were mixed and then incubated in the dark for 1 hour at RT. […] The results were graphed to calculate the EC50. Titration of ATP at the EC50 concentration of kinase to determine ATP Km,app. was performed using the following method. […] The contents of the plate were and incubated at RT for 1 h. The reaction was stopped by adding 5 μl of stop solution to each test well followed by mixing and incubation at RT for 10 minutes. 5 μl of detection mix (detection antibody diluted in detection buffer) was added; the contents of the plate were mixed and then incubated in the dark for 1 hour at RT. […] The results were graphed to calculate the EC50 as the ATP Km,app. […] If compound is not soluble under this condition, it was diluted to 3 mM. Kinase reaction buffer was prepared containing 10 mM MgCl2, 50 mM HEPES, 1 mM EGTA, 0.01% TWEEN-20, 2 mM DTT. […] As a positive control, 2.5 μl of positive compound was added to assay wells, and 2.5 μl of DMSO to assay wells as vehicle control. Kinase solution was prepared in reaction buffer at 2× final assay concentration. Kinase solution (5 μl) was added to each well of the assay plate. The substrate and ATP solution was prepared in kinase reaction buffer at 4× final assay concentration. The kinase reaction was started by adding 2.5 μl of substrate+ATP mix solution to each well of the assay plate. The plate is mixed on a plate shaker; then covered and allowed to react for 2 hours in the dark at 25° C. without shaking. The reaction was stopped by adding 5 μl of stop solution to each test well followed by mixing and incubation at RT for 10 minutes in the dark. 5 μl of detection mix (detection antibody diluted in detection buffer) was added; the contents of the plate were mixed and then incubated in the dark for 1 hour at RT.

Sequence of PASK (Homo sapiens (Human), UniProt Q96RG2) (Q96RG2 999-1251): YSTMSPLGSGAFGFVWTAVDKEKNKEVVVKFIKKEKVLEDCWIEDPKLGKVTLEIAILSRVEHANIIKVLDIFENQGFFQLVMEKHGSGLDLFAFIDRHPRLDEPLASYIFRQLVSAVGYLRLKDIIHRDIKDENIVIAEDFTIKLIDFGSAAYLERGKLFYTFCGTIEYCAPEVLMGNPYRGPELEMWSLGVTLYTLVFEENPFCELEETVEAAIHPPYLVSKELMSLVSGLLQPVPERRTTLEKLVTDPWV
Sequence of PASK (UniProt # Q96RG2; human recombinant N-terminal GST tagged construct, residues 879-1323) (Homo sapiens (Human), UniProt Q96RG2) (Q96RG2 879-1323, change not shown): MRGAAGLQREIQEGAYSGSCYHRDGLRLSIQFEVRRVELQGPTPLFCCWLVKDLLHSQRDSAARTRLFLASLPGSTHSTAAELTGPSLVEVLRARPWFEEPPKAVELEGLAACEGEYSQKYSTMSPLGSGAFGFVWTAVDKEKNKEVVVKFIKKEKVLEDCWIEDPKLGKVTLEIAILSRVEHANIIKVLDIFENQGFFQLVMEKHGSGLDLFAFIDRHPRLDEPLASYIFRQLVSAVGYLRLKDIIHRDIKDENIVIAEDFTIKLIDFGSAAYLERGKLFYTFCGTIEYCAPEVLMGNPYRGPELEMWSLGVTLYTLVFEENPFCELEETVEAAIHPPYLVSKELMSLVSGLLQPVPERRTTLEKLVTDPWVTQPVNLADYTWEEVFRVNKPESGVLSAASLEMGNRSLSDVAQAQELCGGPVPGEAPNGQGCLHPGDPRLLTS

| Compound | IC50 [1] | IC50 [2] |
| --- | --- | --- |
| O=C(O)c1ccc2nc(-c3ccccc3)c(N3CCN(c4ccc(C(F)(F)F)cc4)CC3)nc2c1 [Example 1, 2-Phenyl-3-(4-(4-(trifluoromethyl)phenyl)piperazin-1-yl)quinoxaline-6-carboxylic acid] | < 10 µM | – |
| O=C(O)c1ccc2nc(-c3ccccc3)c(N3CCN(c4ccccn4)CC3)nc2c1 [Example 2, 2-Phenyl-3-(4-(pyridin-2-yl)piperazin-1-yl)quinoxaline-6-carboxylic acid] | < 10 µM | – |
| O=C(O)c1ccc2nc(-c3ccccc3)c(N3CCN(c4cccc(Cl)c4)CC3)nc2c1 [Example 3, 3-(4-(3-Chlorophenyl)piperazin-1-yl)-2-phenylquinoxaline-6-carboxylic acid] | < 10 µM | – |
| CN1CCN(c2nc3cc(C(=O)O)ccc3nc2-c2ccccc2)CC1 [Example 4, 3-(4-Methylpiperazin-1-yl)-2-phenylquinoxaline-6-carboxylic acid] | > 10 µM | – |
| O=C(O)c1ccc2nc(-c3ccccc3)c(N3CCN(c4ccccc4)CC3)nc2c1 [Example 6, 2-Phenyl-3-(4-phenylpiperazin-1-yl)quinoxaline-6-carboxylic acid] | < 10 µM | – |
| O=C(O)c1ccc2nc(-c3ccccc3)c(N3CCC(c4ccc(C(F)(F)F)cc4)CC3)nc2c1 [Example 7, 2-Phenyl-3-(4-(4-(trifluoromethyl)phenyl)piperidin-1-yl)quinoxaline-6-carboxylic acid] | < 10 µM | – |
| O=C(O)c1ccc2nc(-c3ccccc3)c(N3CCN(c4ccc(Cl)cc4)CC3)nc2c1 [Example 8, 3-(4-(4-Chlorophenyl)piperazin-1-yl)-2-phenylquinoxaline-6-carboxylic acid] | < 10 µM | – |
| COc1ccc(N2CCN(c3nc4cc(C(=O)O)ccc4nc3-c3ccccc3)CC2)cc1 [Example 9, 3-(4-(4-Methoxyphenyl)piperazin-1-yl)-2-phenylquinoxaline-6-carboxylic acid] | < 10 µM | – |
| O=C(O)c1ccc2nc(-c3ccccc3)c(N3CCC(c4cccc(Cl)c4)CC3)nc2c1 [Example 10, 3-(4-(3-Chlorophenyl)piperidin-1-yl)-2-phenylquinoxaline-6-carboxylic acid] | < 10 µM | – |
| O=C(O)c1ccc2nc(-c3ccccc3)c(N3CCCCC3)nc2c1 [Example 12, 2-Phenyl-3-(piperidin-1-yl)quinoxaline-6-carboxylic acid] | < 10 µM | – |
| O=C(O)c1ccc2nc(-c3ccccc3)c(N3CCC(c4ccccc4)CC3)nc2c1 [Example 13, 2-Phenyl-3-(4-phenylpiperidin-1-yl)quinoxaline-6-carboxylic acid] | < 10 µM | – |
| O=C(O)c1ccc2nc(-c3ccccc3)c(N3CCCCCC3)nc2c1 [Example 14, 3-(Azepan-1-yl)-2-phenylquinoxaline-6-carboxylic acid] | < 10 µM | – |
| O=C(O)c1ccc2nc(-c3ccccc3)c(N3CCC(c4ccc(Cl)cc4)CC3)nc2c1 [Example 15, 3-(4-(4-Chlorophenyl)piperidin-1-yl)-2-phenylquinoxaline-6-carboxylic acid] | < 10 µM | – |
| O=C(O)c1ccc2nc(-c3ccccc3)c(N3CCCc4ccccc43)nc2c1 [Example 40, 3-(3,4-Dihydroquinolin-1(2H)-yl)-2-phenylquinoxaline-6-carboxylic acid] | < 10 µM | ≤ 10 µM |
| CC(C)N(C)c1nc2cc(C(=O)O)ccc2nc1-c1ccccc1 [Example 43, 3-(Isopropyl(methyl)amino)-2-phenylquinoxaline-6-carboxylic acid] | < 10 µM | ≤ 10 µM |
| CN(c1nc2cc(C(=O)O)ccc2nc1-c1ccccc1)C1CC1 [Example 46, 3-(Cyclopropyl(methyl)amino)-2-phenylquinoxaline-6-carboxylic acid] | < 10 µM | ≤ 10 µM |
| COC[C@H]1CCCN1c1nc2cc(C(=O)O)ccc2nc1-c1ccccc1 [Example 51, (R)-3-(2-(Methoxymethyl)pyrrolidin-1-yl)-2-phenylquinoxaline-6-carboxylic acid] | < 10 µM | ≤ 10 µM |

| Compound | IC50 [1] | IC50 [2] |
| --- | --- | --- |
| O=C(O)c1ccc2nc(-c3ccccc3)c(N3CCC[C@@H]3CO)nc2c1 [Example 52, (R)-3-(2-(Hydroxymethyl)pyrrolidin-1-yl)-2-phenylquinoxaline-6-carboxylic acid] | < 10 µM | ≤ 10 µM |
| CC(C)N(C)c1nc2cc(C(=O)O)ccc2nc1-c1ccc(F)cc1 [Example 57, 2-(4-Fluorophenyl)-3-(isopropyl(methyl)amino)quinoxaline-6-carboxylic acid] | < 10 µM | ≤ 10 µM |
| COc1ccc(-c2nc3ccc(C(=O)O)cc3nc2N(C)C(C)C)cc1 [Example 58, 3-(Isopropyl(methyl)amino)-2-(4-methoxyphenyl)quinoxaline-6-carboxylic acid] | < 10 µM | ≤ 10 µM |
| CC(C)N(C)c1nc2cc(C(=O)O)ccc2nc1-c1ccc(F)c(F)c1 [Example 63, 2-(3,4-Difluorophenyl)-3-(isopropyl(methyl)amino)quinoxaline-6-carboxylic acid] | < 10 µM | ≤ 10 µM |
| CC(C)N(C)c1nc2cc(C(=O)O)ccc2nc1-c1ccc(Cl)cc1 [Example 64, 2-(4-Chlorophenyl)-3-(isopropyl(methyl)amino)quinoxaline-6-carboxylic acid] | < 10 µM | ≤ 10 µM |
| O=C(O)c1ccc2nc(-c3ccccc3)c(N3CCC[C@@H]3C(F)(F)F)nc2c1 [Example 65, (R)-2-Phenyl-3-(2-(trifluoromethyl)pyrrolidin-1-yl)quinoxaline-6-carboxylic acid] | < 10 µM | ≤ 10 µM |
| COc1ccc2c(c1)CCCN2c1nc2cc(C(=O)O)ccc2nc1-c1ccccc1 [Example 66, 3-(6-Methoxy-3,4-dihydroquinolin-1(2H)-yl)-2-phenylquinoxaline-6-carboxylic acid] | < 10 µM | ≤ 10 µM |
| O=C(O)c1ccc2nc(-c3ccc(F)cc3)c(N3CCCCC3)nc2c1 [Example 75, 2-(4-Fluorophenyl)-3-(piperidin-1-yl)quinoxaline-6-carboxylic acid] | < 10 µM | ≤ 10 µM |
| O=C(O)c1ccc2nc(-c3ccc(F)cc3)c(N3CCCCCC3)nc2c1 [Example 76, 3-(Azepan-1-yl)-2-(4-fluorophenyl)quinoxaline-6-carboxylic acid] | < 10 µM | ≤ 10 µM |
| O=C1CN(c2nc3cc(C(=O)O)ccc3nc2-c2ccc(F)cc2)CCN1 [Example 103, 2-(4-Fluorophenyl)-3-(3-oxopiperazin-1-yl)quinoxaline-6-carboxylic acid] | – | ≤ 10 µM |
| CN(c1nc2cc(C(=O)O)ccc2nc1-c1ccc(F)cc1)C1CCOCC1 [Example 105, 2-(4-Fluorophenyl)-3-(methyl(tetrahydro-2H-pyran-4-yl)amino)quinoxaline-6-carboxylic acid] | – | ≤ 10 µM |
| CN(c1nc2cc(C(=O)O)ccc2nc1-c1ccc(F)cc1)C1CCCC1 [Example 106, 3-(Cyclopentyl(methyl)amino)-2-(4-fluorophenyl)quinoxaline-6-carboxylic acid] | – | ≤ 10 µM |
| Cc1ccc(-c2nc3ccc(C(=O)O)cc3nc2N(C)C(C)C)s1 [Example 107, 3-(Isopropyl(methyl)amino)-2-(5-methylthiophen-2-yl)quinoxaline-6-carboxylic acid] | – | ≤ 10 µM |
| CC(C)N(C)c1nc2cc(C(=O)O)ccc2nc1-c1cccs1 [Example 108, 3-(Isopropyl(methyl)amino)-2-(thiophen-2-yl)quinoxaline-6-carboxylic acid] | – | ≤ 10 µM |
| CC(=O)N(C)C1CCN(c2nc3cc(C(=O)O)ccc3nc2-c2ccc(F)cc2)CC1 [Example 111, 2-(4-Fluorophenyl)-3-(4-(N-methylacetamido)piperidin-1-yl)quinoxaline-6-carboxylic acid] | – | ≤ 10 µM |
| CN1CCN(c2nc3cc(C(=O)O)ccc3nc2-c2ccc(F)cc2)CC1=O [Example 112, 2-(4-Fluorophenyl)-3-(4-methyl-3-oxopiperazin-1-yl)quinoxaline-6-carboxylic acid] | – | ≤ 10 µM |
